Source: ChEMBL document CHEMBL1158513, “Identification and SAR of novel pyrrolo[1,2-a]pyrazin-1(2H)-one derivatives as inhibitors of poly(ADP-ribose) polymerase-1 (PARP-1)” (Bioorg Med Chem Lett, 2010)
“And” between values parts separate entries of the source, which are not always exact repeats. Identical values can stand only once.

Key:
HeLa [1] = test: Antiproliferative activity against BRCA1-deficient human HeLa cells after 7 days by celltiter-blue assay; format: functional; conditions: 168 h
HeLa [2] = test: Antiproliferative activity against BRCA1-proficient human HeLa cells after 7 days by celltiter-blue assay; format: functional; conditions: 168 h
[3] = target: Poly [ADP-ribose] polymerase 1 (Homo sapiens, UniProt P09874); test: Inhibition of PARP1 by topcount microplate scintillation counter
Sequence of Poly [ADP-ribose] polymerase 1 (P09874 whole entry): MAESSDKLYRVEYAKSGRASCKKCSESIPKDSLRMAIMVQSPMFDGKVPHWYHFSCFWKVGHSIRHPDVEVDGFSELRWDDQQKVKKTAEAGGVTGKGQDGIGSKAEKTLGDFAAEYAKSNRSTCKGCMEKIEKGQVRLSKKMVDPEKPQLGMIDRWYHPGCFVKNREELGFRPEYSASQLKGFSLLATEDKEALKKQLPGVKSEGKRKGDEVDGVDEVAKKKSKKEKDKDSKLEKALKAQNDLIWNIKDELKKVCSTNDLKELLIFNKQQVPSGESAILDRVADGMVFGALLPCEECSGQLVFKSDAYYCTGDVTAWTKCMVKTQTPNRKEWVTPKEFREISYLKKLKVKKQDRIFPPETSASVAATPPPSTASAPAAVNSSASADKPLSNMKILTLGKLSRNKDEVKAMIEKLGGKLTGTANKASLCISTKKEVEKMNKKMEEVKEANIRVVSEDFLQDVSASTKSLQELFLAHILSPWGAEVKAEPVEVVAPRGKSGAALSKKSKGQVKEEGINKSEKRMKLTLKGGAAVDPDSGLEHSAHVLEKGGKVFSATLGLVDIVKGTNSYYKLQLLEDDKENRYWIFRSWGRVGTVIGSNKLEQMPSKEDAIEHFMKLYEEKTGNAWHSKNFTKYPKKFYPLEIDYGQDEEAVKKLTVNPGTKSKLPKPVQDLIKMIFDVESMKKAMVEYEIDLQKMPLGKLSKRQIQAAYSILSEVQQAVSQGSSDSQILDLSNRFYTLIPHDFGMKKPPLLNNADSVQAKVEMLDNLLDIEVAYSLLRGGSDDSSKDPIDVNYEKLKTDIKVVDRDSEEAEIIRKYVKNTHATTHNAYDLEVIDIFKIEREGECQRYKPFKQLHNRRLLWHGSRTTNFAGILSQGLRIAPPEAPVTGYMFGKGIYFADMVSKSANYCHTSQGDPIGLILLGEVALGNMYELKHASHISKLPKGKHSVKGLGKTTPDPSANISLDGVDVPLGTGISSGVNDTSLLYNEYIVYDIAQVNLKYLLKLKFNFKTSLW

[4] = Clearance in rat; format: ADME, organism-based; conditions: in vivo
[5] = Intrinsic clearance in rat liver microsomes; format: ADME, Microsome
CYP3A4 = CYP3A4 (Homo sapiens, UniProt P08684); test: Inhibition of CYP3A4 at 10 uM; format: ADME
Sequence of CYP3A4 (P08684 whole entry): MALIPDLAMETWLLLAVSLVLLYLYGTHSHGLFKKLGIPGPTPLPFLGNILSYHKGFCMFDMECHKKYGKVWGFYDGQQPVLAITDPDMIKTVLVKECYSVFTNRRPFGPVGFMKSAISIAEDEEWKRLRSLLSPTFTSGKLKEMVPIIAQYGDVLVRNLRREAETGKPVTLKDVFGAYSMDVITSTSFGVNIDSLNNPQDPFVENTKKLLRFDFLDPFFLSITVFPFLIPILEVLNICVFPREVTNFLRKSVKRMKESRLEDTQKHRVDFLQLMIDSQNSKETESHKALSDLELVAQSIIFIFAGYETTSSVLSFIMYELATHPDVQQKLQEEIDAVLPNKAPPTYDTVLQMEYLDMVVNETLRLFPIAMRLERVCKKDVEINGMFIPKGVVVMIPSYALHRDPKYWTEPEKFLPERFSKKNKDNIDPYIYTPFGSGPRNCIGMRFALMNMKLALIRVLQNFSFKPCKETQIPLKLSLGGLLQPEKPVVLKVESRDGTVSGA

HeLa [6] = test: Selectivity ratio of CC50 for BRCA1-proficient human HeLa to CC50 for BRCA1-deficient human HeLa cells; format: functional
[7] = Lipophilicity, log D of the compound; format: physicochemical; conditions: octanol/water

| Structure (SMILES) | CC50 (HeLa [1]) [nM] | CC50 (HeLa [2]) [nM] | IC50 [3] [nM] | clearance [4] [mL/min/kg] | microsomal CLint [5] [µL/min/mg] | inhibition at 10 µM (CYP3A4) [%] | Selectivity ratio (HeLa [6]) | logD [7] |
| --- | --- | --- | --- | --- | --- | --- | --- | --- |
| CN(C)C(=O)N1CCN(C(=O)c2cc(Cc3c[nH]c(=O)c4cc(Cl)c(Cl)n34)ccc2F)CC1 | 670 | > 10000 | 7.2 |  |  |  |  |  |
| CN(C)C1CCN(C(=O)c2cc(Cc3c[nH]c(=O)c4cc(Cl)c(Cl)n34)ccc2F)CC1 | 1600 | > 10000 | 2.6 |  |  |  |  |  |
| O=C(c1cc(Cc2c[nH]c(=O)c3cc(Cl)c(Cl)n23)ccc1F)N1CCN(CCO)CC1 | > 5000 | > 10000 | 13 |  |  |  |  |  |
| CN(C)CCN1CCN(C(=O)c2cc(Cc3c[nH]c(=O)c4cc(Cl)c(Cl)n34)ccc2F)CC1 | > 10000 | > 10000 | 18 |  |  |  |  |  |
| O=C(c1cc(Cc2c[nH]c(=O)c3cc(Cl)c(Cl)n23)ccc1F)N1CCN(c2ncc3ccccc3n2)CC1 | 190 | 770 | 1 |  |  |  |  |  |
| CNC1CCN(C(=O)c2cc(Cc3c[nH]c(=O)c4cc(Cl)c(Cl)n34)ccc2F)CC1 | 400 | > 5000 | 2.3 |  |  |  |  |  |
| O=C(c1cc(Cc2c[nH]c(=O)c3cc(Cl)c(Cl)n23)ccc1F)N1CCN(c2ncccn2)CC1 | 130 | 2800 | 3.1 |  |  |  |  |  |
| O=C(c1cc(Cc2c[nH]c(=O)c3cc(Cl)c(Cl)n23)ccc1F)N1CCC(N2CCCC2)CC1 | 120 | > 5000 | 5.4 | 94 | 135 | 30 |  |  |
| O=C(c1cc(Cc2c[nH]c(=O)c3cc(Cl)c(Cl)n23)ccc1F)N1CCN(c2cc3ccccc3cn2)CC1 | 320 | 1200 | 1.8 |  |  |  |  |  |
| O=C(c1cc(Cc2c[nH]c(=O)c3cc(Cl)c(Cl)n23)ccc1F)N1CCC2(CCCN2)CC1 | 48 | > 10000 |  |  |  |  | 50 |  |
| N#Cc1ccc(N2CCN(C(=O)c3cc(Cc4c[nH]c(=O)c5cc(Cl)c(Cl)n45)ccc3F)CC2)nc1 | 200 | 4200 | 14 |  |  |  |  |  |
| O=C(c1ncc[nH]1)N1CCN(C(=O)c2cc(Cc3c[nH]c(=O)c4cc(Cl)c(Cl)n34)ccc2F)CC1 | 500 | > 5000 | 3.1 |  |  |  |  |  |
| CN(C)S(=O)(=O)N1CCN(C(=O)c2cc(Cc3c[nH]c(=O)c4cc(Cl)c(Cl)n34)ccc2F)CC1 | 910 | > 10000 | 2.4 |  |  |  |  |  |
| O=C(c1cc(Cc2c[nH]c(=O)c3cc(Cl)c(Cl)n23)ccc1F)N1CCC2(CC1)NCNC2=O | > 2500 | > 5000 | 9 |  |  |  |  |  |
| O=C(c1cc(Cc2c[nH]c(=O)c3cc(Cl)c(Cl)n23)ccc1F)N1CCN(C(=O)C2CCCC2)CC1 | 270 | > 5000 | 3.7 |  |  |  |  |  |
| CN(C)C(=O)C(=O)N1CCN(C(=O)c2cc(Cc3c[nH]c(=O)c4cc(Cl)c(Cl)n34)ccc2F)CC1 | 1800 | > 10000 | 2 |  |  |  |  |  |
| CNC(C)(C)C(=O)N1CCN(C(=O)c2cc(Cc3c[nH]c(=O)c4cc(Cl)c(Cl)n34)ccc2F)CC1 | 53 | > 5000 | 2.1 | > 200 |  |  | 100 and 50 |  |
| CN1CCN(C(=O)c2cc(Cc3c[nH]c(=O)c4cc(Cl)c(Cl)n34)ccc2F)CC1 |  |  | 41 |  |  |  |  |  |
| O=C(c1cc(Cc2c[nH]c(=O)c3cc(Cl)c(Cl)n23)ccc1F)N1CCN(C2CCCCC2)CC1 | 970 | > 5000 | 14 |  |  |  |  |  |
| CCS(=O)(=O)N1CCN(C(=O)c2cc(Cc3c[nH]c(=O)c4cc(Cl)c(Cl)n34)ccc2F)CC1 | 3000 | > 5000 | 9 |  |  |  |  |  |
| N#Cc1cccnc1N1CCN(C(=O)c2cc(Cc3c[nH]c(=O)c4cc(Cl)c(Cl)n34)ccc2F)CC1 | 62 | 1600 | 0.7 |  |  |  | 25 |  |
| NC1CCN(C(=O)c2cc(Cc3c[nH]c(=O)c4cc(Cl)c(Cl)n34)ccc2F)CC1 | 3800 | > 10000 | 7.1 |  |  |  |  |  |
| O=C(c1cc(Cc2c[nH]c(=O)c3cc(Cl)c(Cl)n23)ccc1F)N1CCC2(CCN2)CC1 | 2300 | > 5000 | 8.2 |  |  |  |  |  |
| O=C(c1cc(Cc2c[nH]c(=O)c3cc(Cl)c(Cl)n23)ccc1F)N1CCN(c2ccccn2)CC1 | 430 | > 10000 | 2.8 |  |  |  |  |  |
| O=C(c1cc(Cc2c[nH]c(=O)c3cc(Cl)c(Cl)n23)ccc1F)N1CCC(N2CCC2)CC1 | 180 | > 10000 | 1 |  |  |  |  |  |
| CC(C)C(=O)N1CCN(C(=O)c2cc(Cc3c[nH]c(=O)c4cc(Cl)c(Cl)n34)ccc2F)CC1 | 150 | > 5000 | 2.1 |  |  |  | 30 |  |

| Structure (SMILES) | CC50 (HeLa [1]) [nM] | CC50 (HeLa [2]) [nM] | IC50 [3] [nM] | clearance [4] [mL/min/kg] | microsomal CLint [5] [µL/min/mg] | inhibition at 10 µM (CYP3A4) [%] | Selectivity ratio (HeLa [6]) | logD [7] |
| --- | --- | --- | --- | --- | --- | --- | --- | --- |
| O=C(c1cc(Cc2c[nH]c(=O)c3cc(Cl)c(Cl)n23)ccc1F)N1CCCNCC1 | 170 | > 20000 | 2.6 |  |  |  |  | 0.91 |
| CC(=O)N1CCN(C(=O)c2cc(Cc3c[nH]c(=O)c4cc(Cl)c(Cl)n34)ccc2F)CC1 | 700 | > 10000 | 6.3 |  |  |  |  |  |
| O=C(c1cc(Cc2c[nH]c(=O)c3cc(Cl)c(Cl)n23)ccc1F)N1CCN(c2ncnc3ccccc23)CC1 | 60 | 920 | 1.4 |  |  |  |  |  |
| O=C(c1cc(Cc2c[nH]c(=O)c3cc(Cl)c(Cl)n23)ccc1F)N1CCN(c2ccccc2F)CC1 | > 10000 | > 10000 | 24 |  |  |  |  |  |
| O=C(c1cc(Cc2c[nH]c(=O)c3cc(Cl)c(Cl)n23)ccc1F)N1CCC2(CCCCN2)CC1 | 220 | > 5000 | 6.2 |  |  |  |  |  |
| O=C(c1cc(Cc2c[nH]c(=O)c3cc(Cl)c(Cl)n23)ccc1F)N1CCOCC1 |  |  | 59 |  |  |  |  |  |
| CN(C)C(C)(C)C(=O)N1CCN(C(=O)c2cc(Cc3c[nH]c(=O)c4cc(Cl)c(Cl)n34)ccc2F)CC1 | 200 | > 5000 | 5.1 |  |  |  |  |  |
| CC(=O)N1CCCN(C(=O)c2cc(Cc3c[nH]c(=O)c4cc(Cl)c(Cl)n34)ccc2F)CC1 | 5700 | > 20000 | 19 |  |  |  |  |  |
| CCN(CC)C1CCN(C(=O)c2cc(Cc3c[nH]c(=O)c4cc(Cl)c(Cl)n34)ccc2F)CC1 | 1100 | > 5000 | 22 |  |  |  |  |  |
| Cc1cc2c(=O)[nH]cc(Cc3ccc(F)c(C(=O)N4CCCNCC4)c3)n2c1 | 3400 | > 20000 | 1.6 |  |  |  |  |  |
| O=C(c1cc(Cc2c[nH]c(=O)c3cc(Cl)c(Cl)n23)ccc1F)N1CCCCC1 |  |  | 200 |  |  |  |  |  |
| CCC(=O)N1CCN(C(=O)c2cc(Cc3c[nH]c(=O)c4cc(Cl)c(Cl)n34)ccc2F)CC1 | 1200 | > 5000 | 3.2 |  |  |  |  |  |
| COc1cccnc1N1CCN(C(=O)c2cc(Cc3c[nH]c(=O)c4cc(Cl)c(Cl)n34)ccc2F)CC1 | 2700 | > 5000 | 15 |  |  |  |  |  |
| O=C(c1cc(Cc2c[nH]c(=O)c3c(Cl)cc(Cl)n23)ccc1F)N1CCCNCC1 | 18000 | > 20000 | 4 |  |  |  |  |  |
| CC(C)CN1CCN(C(=O)c2cc(Cc3c[nH]c(=O)c4cc(Cl)c(Cl)n34)ccc2F)CC1 | 250 | > 10000 | 14 |  |  |  |  |  |
| O=C(c1cc(Cc2c[nH]c(=O)c3cccn23)ccc1F)N1CCCNCC1 | > 20000 | > 20000 | 1.8 |  |  |  |  | -0.89 |
| CN(C)CC(=O)N1CCN(C(=O)c2cc(Cc3c[nH]c(=O)c4cc(Cl)c(Cl)n34)ccc2F)CC1 | 3500 | > 10000 | 2.5 |  |  |  |  |  |
| O=C(c1cc(Cc2c[nH]c(=O)c3cc(Cl)c(Cl)n23)ccc1F)N1CCN(c2cccnc2)CC1 | > 5000 | > 5000 | 12 |  |  |  | 20 |  |
| CC(C)(C)C(=O)N1CCN(C(=O)c2cc(Cc3c[nH]c(=O)c4cc(Cl)c(Cl)n34)ccc2F)CC1 | 340 | > 5000 | 1 |  |  |  |  |  |
| O=C(c1cc(Cc2c[nH]c(=O)c3cc(Cl)c(Cl)n23)ccc1F)N1CCNCC1 | 180 | > 20000 | 2.3 |  |  |  |  |  |
| CCCCN1CCN(C(=O)c2cc(Cc3c[nH]c(=O)c4cc(Cl)c(Cl)n34)ccc2F)CC1 | 1600 | > 10000 | 13 |  |  |  |  |  |
| O=C(c1cc(Cc2c[nH]c(=O)c3cc(Cl)cn23)ccc1F)N1CCCNCC1 | 2500 | > 20000 | 1 |  |  |  |  | 0.58 |
| CN1CCCN(C(=O)c2cc(Cc3c[nH]c(=O)c4cc(Cl)c(Cl)n34)ccc2F)CC1 | 1100 | > 20000 | 5 |  |  |  |  |  |
| O=C(c1cc(Cc2c[nH]c(=O)c3c(Cl)c(Cl)cn23)ccc1F)N1CCCNCC1 | 220 | > 20000 | 1.6 |  |  |  |  |  |
| O=C(c1ccccn1)N1CCN(C(=O)c2cc(Cc3c[nH]c(=O)c4cc(Cl)c(Cl)n34)ccc2F)CC1 | 150 | > 5000 | 2.4 |  |  |  | 30 |  |
